Laboratory results taken from ChEMBL document CHEMBL1909294, “Translating clinical findings into knowledge in drug safety evaluation--drug induced liver injury prediction system (DILIps)” (PLoS Comput Biol, 2011).

How the values were obtained:
Hepatotoxicity [1] = system: Hepatotoxicity;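 on HepSE bilirubinemia: bilirubinemia hepatic side effect score drawn from the DILIps training data, a prediction system for drug-induced liver injury; call rule not given here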;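 on HepSE cholecystitis: Cholecystitis-related hepatic side effect score drawn from the DILIps (drug-induced liver injury prediction) training data set; call rule not given here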;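 on HepSE cholelithiasis: hepatic side effect score for cholelithiasis, drawn from the DILIps training data for predicting drug-induced liver injury; call rule not given here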;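 on HepSE cirrhosis: cirrhosis hepatic side effect score taken from the DILIps (drug-induced liver injury prediction) training set; call rule not given here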;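 on HepSE elevated liver function tests: hepatic side effect score for raised liver function tests, as recorded in the DILIps training set used for predicting drug-induced liver injury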; on HepSE hepatic failure: call rule not given here;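 on HepSE hepatomegaly: hepatic side effect score for hepatomegaly, taken from the training set of the DILIps drug-induced liver injury prediction system; call rule not given here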
Hepatotoxicity [2] = system: Hepatotoxicity; remark: listed apart in the source;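 on HepSE bilirubinemia: bilirubinemia hepatic side effect score drawn from the DILIps training data, a prediction system for drug-induced liver injury; call rule not given here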;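 on HepSE cholecystitis: Cholecystitis-related hepatic side effect score drawn from the DILIps (drug-induced liver injury prediction) training data set; call rule not given here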;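 on HepSE cholelithiasis: hepatic side effect score for cholelithiasis, drawn from the DILIps training data for predicting drug-induced liver injury; call rule not given here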;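 on HepSE cirrhosis: cirrhosis hepatic side effect score taken from the DILIps (drug-induced liver injury prediction) training set; call rule not given here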;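 on HepSE elevated liver function tests: hepatic side effect score for raised liver function tests, as recorded in the DILIps training set used for predicting drug-induced liver injury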; on HepSE hepatic failure: call rule not given here;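 on HepSE hepatomegaly: hepatic side effect score for hepatomegaly, taken from the training set of the DILIps drug-induced liver injury prediction system; call rule not given here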
Hepatotoxicity [3] = system: Hepatotoxicity; remark: listed apart in the source;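 on HepSE bilirubinemia: bilirubinemia hepatic side effect score drawn from the DILIps training data, a prediction system for drug-induced liver injury; call rule not given here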;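 on HepSE cholecystitis: Cholecystitis-related hepatic side effect score drawn from the DILIps (drug-induced liver injury prediction) training data set; call rule not given here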;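 on HepSE cholelithiasis: hepatic side effect score for cholelithiasis, drawn from the DILIps training data for predicting drug-induced liver injury; call rule not given here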;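 on HepSE cirrhosis: cirrhosis hepatic side effect score taken from the DILIps (drug-induced liver injury prediction) training set; call rule not given here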;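 on HepSE elevated liver function tests: hepatic side effect score for raised liver function tests, as recorded in the DILIps training set used for predicting drug-induced liver injury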; on HepSE hepatic failure: call rule not given here
Hepatotoxicity [4] = system: Hepatotoxicity; remark: listed apart in the source;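 on HepSE bilirubinemia: bilirubinemia hepatic side effect score drawn from the DILIps training data, a prediction system for drug-induced liver injury; call rule not given here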;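 on HepSE cholecystitis: Cholecystitis-related hepatic side effect score drawn from the DILIps (drug-induced liver injury prediction) training data set; call rule not given here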;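 on HepSE cholelithiasis: hepatic side effect score for cholelithiasis, drawn from the DILIps training data for predicting drug-induced liver injury; call rule not given here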;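 on HepSE cirrhosis: cirrhosis hepatic side effect score taken from the DILIps (drug-induced liver injury prediction) training set; call rule not given here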;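 on HepSE elevated liver function tests: hepatic side effect score for raised liver function tests, as recorded in the DILIps training set used for predicting drug-induced liver injury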; on HepSE hepatic failure: call rule not given here
Hepatotoxicity [5] = system: Hepatotoxicity; remark: listed apart in the source; on HepSE hepatic failure: call rule not given here
Hepatotoxicity [6] = system: Hepatotoxicity; remark: listed apart in the source; on HepSE hepatic failure: call rule not given here
Hepatotoxicity [7] = system: Hepatotoxicity; remark: listed apart in the source
Hepatotoxicity [8] = system: Hepatotoxicity; remark: listed apart in the source
Hepatotoxicity [9] = system: Hepatotoxicity; remark: listed apart in the source
Hepatotoxicity [10] = system: Hepatotoxicity; remark: listed apart in the source
Hepatotoxicity [11] = system: Hepatotoxicity; remark: listed apart in the source
Hepatotoxicity [12] = system: Hepatotoxicity; remark: listed apart in the source
Hepatotoxicity [13] = system: Hepatotoxicity; remark: listed apart in the source
Hepatotoxicity [14] = system: Hepatotoxicity; remark: listed apart in the source

Molecule | HepSE_bilirubinemia (Hepatotoxicity [1]) | HepSE_cholecystitis (Hepatotoxicity [2]) | HepSE_cholelithiasis (Hepatotoxicity [3]) | HepSE_cirrhosis (Hepatotoxicity [4]) | HepSE_elevated liver function tests (Hepatotoxicity [5]) | HepSE_hepatic failure (Hepatotoxicity [6]) | HepSE_hepatic necrosis (Hepatotoxicity [7]) | HepSE_hepatitis (Hepatotoxicity [8]) | HepSE_hepatomegaly (Hepatotoxicity [9]) | HepSE_jaundice (Hepatotoxicity [10]) | HepSE_liver disease (Hepatotoxicity [11]) | HepSE_liver fatty (Hepatotoxicity [12]) | HepSE_liver function tests abnormal (Hepatotoxicity [13]) | HepSE_Combined Scores (Hepatotoxicity [14])
CC(=O)[C@@]1(O)CC[C@H]2[C@@H]3C=C(Cl)C4=CC(=O)[C@@H]5C[C@@H]5[C@]4(C)[C@H]3CC[C@@]21C [CYPROTERONE] | 0 | 0 | 0 | 1 | 0 | 1 | 1 | 1 | 1 | 1 | 0 | 0 | 0 | 6
COC1=CC(=O)C[C@@H](C)[C@]12Oc1c(Cl)c(OC)cc(OC)c1C2=O [GRISEOFULVIN] | 0 | 0 | 0 | 0 | 0 | 0 | 0 | 0 | 0 | 0 | 0 | 0 | 0 | 0
COc1ccnc(C[S+]([O-])c2nc3ccc(OC(F)F)cc3[nH]2)c1OC (configuration not stated) [PANTOPRAZOLE] | 1 | 1 | 1 | 0 | 0 | 1 | 0 | 1 | 0 | 1 | 0 | 0 | 1 | 7
Cc1nnc2n1-c1ccc(Cl)cc1C(c1ccccc1Cl)=NC2 [TRIAZOLAM] | 0 | 0 | 0 | 0 | 0 | 1 | 0 | 0 | 0 | 1 | 0 | 0 | 0 | 2
CC(=O)Oc1c(C)cc(OCC(O)CNC(C)C)c(C)c1C (configuration not stated) [METIPRANOLOL] | 0 | 0 | 0 | 0 | 0 | 0 | 0 | 0 | 0 | 0 | 0 | 0 | 0 | 0
COLESTIPOL | 0 | 1 | 1 | 0 | 0 | 0 | 0 | 0 | 0 | 0 | 0 | 0 | 0 | 2
CC(=O)S[C@@H]1CC2=CC(=O)CC[C@]2(C)[C@H]2CC[C@@]3(C)[C@@H](CC[C@@]34CCC(=O)O4)[C@H]12 [SPIRONOLACTONE] | 0 | 0 | 0 | 0 | 0 | 0 | 0 | 0 | 0 | 0 | 0 | 0 | 0 | 0
CCC(=O)O[C@@H](O[P@](=O)(CCCCc1ccccc1)CC(=O)N1C[C@H](C2CCCCC2)C[C@H]1C(=O)O)C(C)C [FOSINOPRIL] | 0 | 0 | 0 | 0 | 0 | 1 | 0 | 1 | 1 | 1 | 0 | 0 | 0 | 4
C[C@]1(O)CC[C@H]2[C@@H]3CCC4=CC(=O)CC[C@]4(C)[C@@]3(F)[C@@H](O)C[C@@]21C [FLUOXYMESTERONE] | 0 | 0 | 0 | 0 | 0 | 0 | 0 | 0 | 0 | 1 | 0 | 0 | 0 | 1
Cc1cn([C@H]2C=C[C@@H](CO)O2)c(=O)[nH]c1=O [STAVUDINE] | 1 | 0 | 0 | 0 | 0 | 1 | 0 | 1 | 0 | 0 | 1 | 1 | 0 | 5
CCOC(=O)[C@H](CCc1ccccc1)N[C@@H](C)C(=O)N1[C@H](C(=O)O)C[C@@H]2CCC[C@@H]21 | 0 | 0 | 0 | 0 | 0 | 1 | 1 | 1 | 0 | 1 | 0 | 0 | 0 | 4
CCC1=C(C)CN(C(=O)NCCc2ccc(S(=O)(=O)NC(=O)N[C@H]3CC[C@H](C)CC3)cc2)C1=O [GLIMEPIRIDE] | 0 | 0 | 0 | 0 | 0 | 1 | 0 | 1 | 0 | 1 | 0 | 0 | 0 | 3
N[C@@H]1[C@H]2CN(c3nc4c(cc3F)c(=O)c(C(=O)O)cn4-c3ccc(F)cc3F)C[C@@H]12 [TROVAFLOXACIN] | 1 | 0 | 0 | 0 | 0 | 1 | 1 | 1 | 0 | 1 | 0 | 0 | 0 | 5
